Legend:
[1] = tested on: aflatoxin-producing microorganism; details: Non-Patent Literature 3; cited from earlier work
[2] = tested on: dipeptidyl aminopeptidase II (DPP II); details: stated as known; cited from earlier work
[3] = tested on: Aspergillus parasiticus NRRL2999; format: cell-based
[4] = tested on: Aspergillus parasiticus NRRL2999; format: cell-based; remark: listed apart in the source

Compound	Aflatoxin production inhibitory activity [1]	DPPII inhibition (known) [2]	Inhibition of aflatoxin production [3]	Inhibition of growth of aflatoxin-producing microorganism [4]
Cc1cccc2sc3nncn3c12 [tricyclazole]	weak	–	–	–
dioctatin	–	inhibition of dipeptidyl aminopeptidase II	–	–
COP(=O)(OC)OC=C(Cl)Cl [dichlorvos]	weak	–	–	–
NCC[C@H](N)C(=O)N1CCCCC1 [Dab-Pip]	–	strong inhibitor	neither Orn-Pip nor Dab-Pip inhibited aflatoxin production	not observed
NCCCC(N)C(=O)N1CCCCC1 (stereo not drawn) [Orn-Pip]	–	strong inhibitor	neither Orn-Pip nor Dab-Pip inhibited aflatoxin production	not observed

From patent US8383547B2 (priority 2005, dated 2013)
